Measured values reported in patent US20240050428A1 (Cullgen (Shanghai), Inc., priority 2020, published 2024).
Where two headings read alike, the source gives them in different places.

Tests used:
[1] = tested on: MV4;11 cells; test: Cell viability assay (CellTiter-Glo) in MV4;11 cells, alone or with gilteritinib; type: cell-based; details: Homo sapiens, MV4-11, 72 h, MV4;11 cells, three days, CellTiter-Glo, read-out: MV4
[2] = tested on: MOLM-13 cells; test: Cell viability assay (CellTiter-Glo) in MOLM-13 cells, alone or with gilteritinib; type: cell-based; details: Homo sapiens, MOLM-13, 72 h, MOLM-13 cells, three days, CellTiter-Glo
[3] = compound alone (without gilteritinib), 11 IC50
[4] = with gilteritinib 10 nM, 11 IC50 gilteritinib
[5] = compound alone (without gilteritinib), read-out: MOLM-13 IC50
[6] = with gilteritinib 20 nM, read-out: MOLM-13 IC50 gilteritinib

## O=C1CCC(N2C(=O)c3ccc(NCCCCCCNc4ncc(-c5cnc6ccccc6n5)s4)cc3C2=O)C(=O)N1 (stereo not shown) [GS-385, 2-(2,6-Dioxopiperidin-3-yl)-5-((6-((5-(quinoxalin-2-yl)thiazol-2-yl)amino)hexyl)amino)isoindoline-1,3-dione]
[1]; [3]
  IC50: 0.1 to 1 µM
[1]; [4]
  IC50: 0.01 to 0.1 µM
[2]; [5]
  IC50: 0.1 to 1 µM
[2]; [6]
  IC50: 0.01 to 0.1 µM

## O=C1CCC(N2C(=O)c3ccc(NCCCCCCc4ncc(-c5cnc6ccccc6n5)s4)cc3C2=O)C(=O)N1 (stereo not shown) [GS-386, 2-(2,6-Dioxopiperidin-3-yl)-5-((6-(5-(quinoxalin-2-yl)thiazol-2-yl)hexyl)amino)isoindoline-1,3-dione]
[1]; [3]
  IC50: 0.1 to 1 µM
[1]; [4]
  IC50: 0.01 to 0.1 µM
[2]; [5]
  IC50: 0.01 to 0.1 µM
[2]; [6]
  IC50: < 0.01 µM

## COc1ccc2ncc(-c3cnn(CCCCCCNc4ccc5c(c4)C(=O)N(C4CCC(=O)NC4=O)C5=O)c3)nc2c1 (stereo not shown) [GS-387, 2-(2,6-Dioxopiperidin-3-yl)-5-((6-(4-(7-methoxyquinoxalin-2-yl)-1H-pyrazol-1-yl)hexyl)amino)isoindoline-1,3-dione]
[1]; [3]
  IC50: 0.1 to 1 µM
[1]; [4]
  IC50: 0.01 to 0.1 µM
[2]; [5]
  IC50: 0.1 to 1 µM
[2]; [6]
  IC50: < 0.01 µM

## CN1CCC(c2cccc3ncc(-c4cnn(CCCCCCNc5ccc6c(c5)C(=O)N(C5CCC(=O)NC5=O)C6=O)c4)nc23)CC1 (stereo not shown) [GS-388, 2-(2,6-Dioxopiperidin-3-yl)-5-((6-(4-(8-(1-methylpiperidin-4-yl)quinoxalin-2-yl)-1H-pyrazol-1-yl)hexyl)amino)isoindoline-1,3-dione]
[1]; [3]
  IC50: > 1 µM
[1]; [4]
  IC50: > 1 µM
[2]; [5]
  IC50: > 1 µM
[2]; [6]
  IC50: > 1 µM

## O=C1CCC(N2C(=O)c3ccc(NCCCCCCn4cc(-c5cnc6cccc(C7CC7)c6n5)cn4)cc3C2=O)C(=O)N1 (stereo not shown) [GS-389, 5-((6-(4-(8-Cyclopropylquinoxalin-2-yl)-1H-pyrazol-1-yl)hexyl)amino)-2-(2,6-dioxopiperidin-3-yl)isoindoline-1,3-dione]
[1]; [3]
  IC50: 0.1 to 1 µM
[1]; [4]
  IC50: 0.01 to 0.1 µM
[2]; [5]
  IC50: 0.1 to 1 µM
[2]; [6]
  IC50: 0.01 to 0.1 µM

## O=C1CCC(N2C(=O)c3ccc(NCCCCCNc4ncc(-c5cnc6ccccc6n5)s4)cc3C2=O)C(=O)N1 (stereo not shown) [GS-390, 2-(2,6-Dioxopiperidin-3-yl)-5-((5-((5-(quinoxalin-2-yl)thiazol-2-yl)amino)pentyl)amino)isoindoline-1,3-dione]
[1]; [3]
  IC50: > 1 µM
[1]; [4]
  IC50: 0.1 to 1 µM
[2]; [5]
  IC50: > 1 µM
[2]; [6]
  IC50: 0.1 to 1 µM

## COc1cccc2ncc(-c3cnn(CCCCCCNc4ccc5c(c4)C(=O)N(C4CCC(=O)NC4=O)C5=O)c3)nc12 (stereo not shown) [GS-391, 2-(2,6-Dioxopiperidin-3-yl)-5-((6-(4-(8-methoxyquinoxalin-2-yl)-1H-pyrazol-1-yl)hexyl)amino)isoindoline-1,3-dione]
[1]; [3]
  IC50: > 1 µM
[1]; [4]
  IC50: > 1 µM
[2]; [5]
  IC50: > 1 µM
[2]; [6]
  IC50: 0.1 to 1 µM

## O=C1CCC(N2C(=O)c3ccc(NCC4CC(n5cc(-c6cnc7cccc(N8CCOCC8)c7n6)cn5)C4)cc3C2=O)C(=O)N1 (stereo not shown) [GS-392, 2-(2,6-Dioxopiperidin-3-yl)-5-(((3-(4-(8-morpholinoquinoxalin-2-yl)-1H-pyrazol-1-yl)cyclobutyl)methyl)amino)isoindoline-1,3-dione]
[1]; [3]
  IC50: > 1 µM
[1]; [4]
  IC50: 0.1 to 1 µM
[2]; [5]
  IC50: > 1 µM
[2]; [6]
  IC50: > 1 µM

## O=C1CCC(N2C(=O)c3ccc(NCCCCCCn4cc(-c5cnc6cccc(C7CCNCC7)c6n5)cn4)cc3C2=O)C(=O)N1 (stereo not shown) [GS-393, 2-(2,6-Dioxopiperidin-3-yl)-5-((6-(4-(8-(piperidin-4-yl)quinoxalin-2-yl)-1H-pyrazol-1-yl)hexyl)amino)isoindoline-1,3-dione]
[1]; [3]
  IC50: > 1 µM
[1]; [4]
  IC50: > 1 µM
[2]; [5]
  IC50: > 1 µM
[2]; [6]
  IC50: > 1 µM

## O=C1CCC(N2C(=O)c3ccc(NCC4CC(n5cc(-c6cnc7cccc(F)c7n6)cn5)C4)cc3C2=O)C(=O)N1 (stereo not shown) [GS-394, 2-(2,6-Dioxopiperidin-3-yl)-5-(((3-(4-(8-fluoroquinoxalin-2-yl)-1H-pyrazol-1-yl)cyclobutyl)methyl)amino)isoindoline-1,3-dione]
[1]; [3]
  IC50: 0.1 to 1 µM
[1]; [4]
  IC50: 0.01 to 0.1 µM
[2]; [5]
  IC50: > 1 µM
[2]; [6]
  IC50: 0.01 to 0.1 µM

## CN1C[C@H]2C[C@@H]1CN2c1ccc2ncc(-c3cnn(C4CC(CCCNc5ccc6c(c5)C(=O)N(C5CCC(=O)NC5=O)C6=O)C4)c3)nc2c1 (stereo partly drawn) [GS-395, 2-(2,6-Dioxopiperidin-3-yl)-5-((3-(3-(4-(7-((1R,4R)-5-methyl-2,5-diazabicyclo[2.2.1]heptan-2-yl)quinoxalin-2-yl)-1H-pyrazol-1-yl)cyclobutyl)propyl)amino)isoindoline-1,3-dione]
[1]; [3]
  IC50: > 1 µM
[1]; [4]
  IC50: 0.01 to 0.1 µM
[2]; [5]
  IC50: > 1 µM
[2]; [6]
  IC50: 0.01 to 0.1 µM

## O=C1CCC(N2C(=O)c3ccc(NCCC[C@H]4C[C@H](n5cc(-c6cnc7cc(N8CCOCC8)ccc7n6)cn5)C4)cc3C2=O)C(=O)N1 (stereo partly drawn) [GS-396, 2-(2,6-Dioxopiperidin-3-yl)-5-((3-(trans-3-(4-(6-morpholinoquinoxalin-2-yl)-1H-pyrazol-1-yl)cyclobutyl)propyl)amino)isoindoline-1,3-dione]
[1]; [3]
  IC50: 0.01 to 0.1 µM
[1]; [4]
  IC50: < 0.01 µM
[2]; [5]
  IC50: 0.01 to 0.1 µM
[2]; [6]
  IC50: < 0.01 µM

## CN1CCN(c2ccc3nc(-c4cnn([C@H]5C[C@H](CCCNc6ccc7c(c6)C(=O)N(C6CCC(=O)NC6=O)C7=O)C5)c4)cnc3c2)CC1 (stereo partly drawn) [GS-397, 2-(2,6-Dioxopiperidin-3-yl)-5-((3-(trans-3-(4-(6-(4-methylpiperazin-1-yl)quinoxalin-2-yl)-1H-pyrazol-1-yl)cyclobutyl)propyl)amino)isoindoline-1,3-dione]
[1]; [3]
  IC50: 0.01 to 0.1 µM
[1]; [4]
  IC50: < 0.01 µM
[2]; [5]
  IC50: 0.01 to 0.1 µM
[2]; [6]
  IC50: < 0.01 µM

## CN1CCN(c2cccc3ncc(-c4cnn(C5CC(CNc6ccc7c(c6)C(=O)N(C6CCC(=O)NC6=O)C7=O)C5)c4)nc23)CC1 (stereo not shown) [GS-398, 2-(2,6-Dioxopiperidin-3-yl)-5-(((3-(4-(8-(4-methylpiperazin-1-yl)quinoxalin-2-yl)-1H-pyrazol-1-yl)cyclobutyl)methyl)amino)isoindoline-1,3-dione]
[1]; [3]
  IC50: > 1 µM
[1]; [4]
  IC50: > 1 µM
[2]; [5]
  IC50: > 1 µM
[2]; [6]
  IC50: > 1 µM

## Cc1nn([C@H]2C[C@H](CCCNc3ccc4c(c3)C(=O)N(C3CCC(=O)NC3=O)C4=O)C2)cc1-c1cnc2ccc(N3CCOCC3)cc2n1 (stereo partly shown) [GS-399]
[1]; [3]
  IC50: < 0.01 µM
[1]; [4]
  IC50: < 0.01 µM
[2]; [5]
  IC50: < 0.01 µM
[2]; [6]
  IC50: < 0.01 µM

## O=C1CCC(N2C(=O)c3ccc(NCCC[C@H]4C[C@H](n5cc(-c6cnc7ccccc7n6)c(C(F)(F)F)n5)C4)cc3C2=O)C(=O)N1 (stereo partly drawn) [GS-400, 2-(2,6-Dioxopiperidin-3-yl)-5-((3-(trans-3-(4-(quinoxalin-2-yl)-3-(trifluoromethyl)-1H-pyrazol-1-yl)cyclobutyl)propyl)amino)isoindoline-1,3-dione]
[1]; [3]
  IC50: 0.01 to 0.1 µM
[1]; [4]
  IC50: 0.01 to 0.1 µM
[2]; [5]
  IC50: 0.1 to 1 µM
[2]; [6]
  IC50: 0.01 to 0.1 µM

## O=C1CCC(N2C(=O)c3ccc(NCCC[C@H]4C[C@H](n5cc(-c6cnc7cc(N8CCNCC8)ccc7n6)cn5)C4)cc3C2=O)C(=O)N1 (stereo partly drawn) [GS-401, 2-(2,6-Dioxopiperidin-3-yl)-5-((3-(trans-3-(4-(6-(piperazin-1-yl)quinoxalin-2-yl)-1H-pyrazol-1-yl)cyclobutyl)propyl)amino)isoindoline-1,3-dione]
[1]; [3]
  IC50: 0.01 to 0.1 µM
[1]; [4]
  IC50: < 0.01 µM
[2]; [5]
  IC50: 0.01 to 0.1 µM
[2]; [6]
  IC50: < 0.01 µM

## O=C1CCC(N2C(=O)c3ccc(NCCC[C@H]4C[C@@H](n5cc(-c6cnc7cc(N8CCOCC8)ccc7n6)cn5)C4)cc3C2=O)C(=O)N1 (stereo partly drawn) [GS-402, 2-(2,6-Dioxopiperidin-3-yl)-5-((3-(cis-3-(4-(6-morpholinoquinoxalin-2-yl)-1H-pyrazol-1-yl)cyclobutyl)propyl)amino)isoindoline-1,3-dione]
[1]; [3]
  IC50: 0.1 to 1 µM
[1]; [4]
  IC50: 0.01 to 0.1 µM
[2]; [5]
  IC50: > 1 µM
[2]; [6]
  IC50: 0.01 to 0.1 µM

## O=C1CCC(N2C(=O)c3ccc(NCCC[C@H]4C[C@H](n5cc(-c6cnc7c(N8CCOCC8)cccc7n6)cn5)C4)cc3C2=O)C(=O)N1 (stereo partly drawn) [GS-403, 2-(2,6-Dioxopiperidin-3-yl)-5-((3-(trans-3-(4-(5-morpholinoquinoxalin-2-yl)-1H-pyrazol-1-yl)cyclobutyl)propyl)amino)isoindoline-1,3-dione]
[1]; [3]
  IC50: 0.1 to 1 µM
[1]; [4]
  IC50: 0.01 to 0.1 µM
[2]; [5]
  IC50: 0.1 to 1 µM
[2]; [6]
  IC50: 0.01 to 0.1 µM

## CN1CCN(c2cccc3nc(-c4cnn([C@H]5C[C@H](CCCNc6ccc7c(c6)C(=O)N(C6CCC(=O)NC6=O)C7=O)C5)c4)cnc23)CC1 (stereo partly drawn) [GS-404, 2-(2,6-Dioxopiperidin-3-yl)-5-((3-(trans-3-(4-(5-(4-methylpiperazin-1-yl)quinoxalin-2-yl)-1H-pyrazol-1-yl)cyclobutyl)propyl)amino)isoindoline-1,3-dione]
[1]; [3]
  IC50: 0.01 to 0.1 µM
[1]; [4]
  IC50: < 0.01 µM
[2]; [5]
  IC50: 0.1 to 1 µM
[2]; [6]
  IC50: < 0.01 µM

## O=C1CCC(N2C(=O)c3ccc(NCCC[C@H]4C[C@H](n5cc(-c6cnc7c(N8CCNCC8)cccc7n6)cn5)C4)cc3C2=O)C(=O)N1 (stereo partly drawn) [GS-405, 2-(2,6-Dioxopiperidin-3-yl)-5-((3-(trans-3-(4-(5-(piperazin-1-yl)quinoxalin-2-yl)-1H-pyrazol-1-yl)cyclobutyl)propyl)amino)isoindoline-1,3-dione]
[1]; [3]
  IC50: 0.01 to 0.1 µM
[1]; [4]
  IC50: 0.01 to 0.1 µM
[2]; [5]
  IC50: 0.1 to 1 µM
[2]; [6]
  IC50: < 0.01 µM

## Cc1nn([C@H]2C[C@H](CCCNc3ccc4c(c3)C(=O)N(C3CCC(=O)NC3=O)C4=O)C2)cc1-c1cnc2ccc(N3C[C@H]4C[C@@H]3CN4C)cc2n1 (stereo partly drawn) [GS-407, 2-(2,6-dioxopiperidin-3-yl)-5-((3-(trans-3-(3-methyl-4-(7-((1R,4R)-5-methyl-2,5-diazabicyclo[2.2.1]heptan-2-yl)quinoxalin-2-yl)-1H-pyrazol-1-yl)cyclobutyl)propyl)amino)isoindoline-1,3-dione]
[1]; [3]
  IC50: > 1 µM
[1]; [4]
  IC50: 0.1 to 1 µM
[2]; [5]
  IC50: > 1 µM
[2]; [6]
  IC50: 0.01 to 0.1 µM
